Laboratory results: patent publication US11905417B2, “Anthraquinone compound, liquid crystal composition for dimming including said compound, and dimming element” (Nippon Kayaku Kabushiki Kaisha, priority 2020, dated 2024)

How the values were obtained:
[1] = Evaluation of solubility of compounds in liquid crystal material (maximum dissolution amount, visual observation); assay type: physicochemical; details: in liquid crystal material (cyanobiphenyl/terphenyl mixture), room temperature, 0.5% steps, tested up to about 4.5% by mass
Protocol: (§1) When a uniform composition with no insoluble matter was obtained, a procedure of further adding 0.003 parts of the compound represented by No. 2, stirring the mixture at room temperature for 1 hour, and then visually observing the appearance of the composition was repeated until a dissolution amount (see the following) reached about 4.5% by mass. The solubility of the compound represented by No. 2 in the liquid crystal material was evaluated by the maximum addition amount at which a uniform composition with no insoluble matter was obtained.
When a uniform composition with no insoluble matter was obtained even after 0.024 parts of the compound were added, the maximum dissolution amount was provisionally determined to be “about 4.5% by mass”.

[2] = Evaluation of contrast of compositions at maximum dissolution amount encapsulated in a cell (C=Ky/Kz at λmax); details: absorption peak wavelength of the composition in the cell
Description: The compositions obtained in Examples 3 and 4 and Comparative Examples 6 to 10 were each encapsulated in an element made of two upper and lower glass substrates each having a transparent electrode with an inter-substrate gap of 15 μm, in which the surface of each glass substrate in contact with a liquid crystal was rubbed with a polyamide-based resin and was subjected to a homogeneous orientation treatment. When no voltage was applied in the element subjected to the orientation treatment, the liquid crystal was in a homogeneously oriented state, and dye molecules were also in the same orientation according to the host liquid crystal.
Each of the uniform compositions with no insoluble matter, which were obtained in the above-mentioned “Evaluation of Solubilities of Compounds of Examples according to Present Invention and Compounds of Comparative Examples in Liquid Crystal Material” and which were each made in the maximum dissolution amount, was encapsulated in a cell. In the cell in which each of the uniform compositions was encapsulated, a transmittance (Ky) of linearly polarized light parallel to the orientation direction and a transmittance (Kz) of polarized light perpendicular to the orientation direction were measured, and a contrast (C) at its absorption peak wavelength (λmax) was determined from the following expression. C=Ky/Kz

[3] = Evaluation of solubility of compounds in liquid crystal material, photocurable compound, and photopolymerization initiator; assay type: physicochemical; details: room temperature, 0.5% steps, tested up to about 3.5% by mass
Protocol: as §1, with “0.005” for “0.003”, “3.5%” for “4.5%”, “material, the photocurable compound, and the photopolymerization initiator” for “material”
When a uniform composition with no insoluble matter was obtained even after 0.030 parts of the compound were added, the maximum dissolution amount was provisionally determined to be “about 3.5% by mass”.

SMILES | Maximum dissolution amount [1] [% by mass] | λmax(nm) [2] [nm] | Maximum dissolution amount [3] [% by mass]
CCCCCCCCC(CCCCCC)C(=O)Oc1ccc(Sc2cccc3c2C(=O)c2cccc(Sc4ccc(OC(=O)C(CCCCCC)CCCCCCCC)cc4)c2C3=O)cc1 (stereo not drawn) [No.2] | 4.5 | 460 | 3.5
CCCCCC(C)CCC(=O)Oc1ccc(Sc2cccc3c2C(=O)c2cccc(Sc4ccc(OC(=O)CCC(C)CCCCC)cc4)c2C3=O)cc1 (stereo not drawn) [Formula(E)] | 2.0 | 460 | 1.0
CCCCC(CC)C(=O)Oc1ccc(Sc2cccc3c2C(=O)c2cccc(Sc4ccc(OC(=O)C(CC)CCCC)cc4)c2C3=O)cc1 (stereo not drawn) [No.3] | 3.5 | 462 | 3.5
CC(C)(C)c1ccc(Sc2cccc3c2C(=O)c2cccc(Sc4ccc5ccccc5c4)c2C3=O)cc1 [Formula(A)] | 1.0 | 462 | 0.5
CC(CC(=O)Oc1ccc(Sc2cccc3c2C(=O)c2cccc(Sc4ccc(OC(=O)CC(C)CC(C)(C)C)cc4)c2C3=O)cc1)CC(C)(C)C (stereo not drawn) [Formula(D)] | 2.0 | 462 | 1.0
